In PubChem BioAssay AID1963849 (Molecular Pharmacology Branch, DTP, NCI, 2024):

System: 299254-011-R-J1-PDC complex spheroid viability
Test: Anticancer human tumor 299254-011-R-J1-PDC patient-derived melanoma cell line growth inhibition [POLQ]
Conditions: for IC50: curve of first compound; for viability, T/C: stronger effect = lower value; active means viability on the fitted dose curve at most 10% of control; inactive means the rest
Method: Multicellular complex tumor spheroid response to Polymerase (POL) inhibitors (novobiocin, ART-558, RP6685) in combination with a variety of drugs and investigational agents in selected tumor cell lines
The POL inhibitors (novobiocin, ART-558, and RP6685) were evaluated both individually and in combination with standard of care and investigational anticancer small molecules within a complex spheroid model of solid tumors. . Complex spheroids include a stromal component modeled by human endothelial cells (HUVEC) and fibroblasts modeled by human mesenchymal stem cells (MSCs). The concentration ranges selected for each drug and investigational agent were based upon clinically achievable concentrations if the clinical Cmax of the agent was known.
Compounds. The drugs and investigational agents: novobiocin (NSC847541), ART-558 (NSC835418), RP-6685 (NSC848927), peposertib (NSC802822), ceralasertib (NSC780249), elimusertib (NSC800525), camonsertib (NSC841442), AZD-1390 (NSC803789), olaparib (NSC753686), talazoparib (NSC767125), rucaparib (NSC756644), sotorasib (NSC818433), MRTX-1133 (NSC836407), SN-38 (NSC673596), topotecan (NSC609699), epotoside (NSC141540), doxorubicin (NSC123127), gemcitabine (NSC613327), 5-fluorouracil (NSC19893), paclitaxel (NSC125973), vemurafenib (NSC761431), MSA-2 (NSC828583), SN-011 (NSC837082), adavosertib (NSC754352), prexasertib (NSC758257), carboplatin (NSC241240) and oxaliplatin (NSC266046), were obtained from the National Cancer Institute (NCI) Developmental Therapeutics Program Chemical Repository (21). The FDA-approved anticancer drug set is available from the Developmental Therapeutics Program at https://dtp.cancer.gov/organization/dscb/obtaining/. […] The stock solutions were prepared in dimethyl sulfoxide (DMSO, Sigma-Aldrich, St. Louis, MO, cat. D2650), except for the platinum compounds which were prepared in saline (Quality Biological, Gaithersburg, MD, cat. 114-055-101), at 800-fold the tested concentration and stored at -70 degrees C prior to their use. All drugs and investigational agents were tested over a range starting from a high concentration at or near the clinical Cmax and decreasing in half-log increments. If the clinical Cmax for an agent had not been determined, the highest concentration tested was 10 microM, except for SN-38, which was tested at a high concentration of 1 microM.
Cell Culture. All cells were maintained in an incubator at 37 degrees C and 5% CO2 with 95% humidity. The PDC lines were cultured according to standard operating procedures established by the NCI PDMR (https://pdmr.cancer.gov). Table 3 of the manuscript, lists the cell lines along with the number of the three cell types plated to form the mct-spheroids and media for tumor cell growth. After thawing, all PDC lines, except 997537-175-T-J1-PDC and 415267-285-R-J2-PDC, were cultured in Matrigel-coated flasks prepared with a working solution of 1X Ham's F-12 nutrient mix, without supplementation (Thermo Fisher Scientific, cat. 11765054), 100 U/mL penicillin-streptomycin (Thermo Fisher Scientific, cat. 15140122), and 2.5% Matrigel (Corning Inc., Corning, NY, cat. 354248) for the first three passages. The two PDC lines 997537-175-T-J1-PDC and 415267-285-R-J2-PDC were cultured on uncoated flasks. The 857933-349-R-J2-PDC line was cultured in 6C/Colon 1B media containing advanced DMEM/F-12 (Thermo Fisher Scientific, cat. 12634028), 10 mM HEPES (Thermo Fisher Scientific, cat. 15630080), 1X GlutaMAX supplement (Thermo Fisher Scientific, cat. 35050061), 0.1 mg/mL primocin (InvivoGen, San Diego, CA, cat. ant-pm-2), 10% defined fetal bovine serum, heat inactivated (HyClone Laboratories Inc., Logan, UT, cat. SH30070.03HI), 50% L-WRN conditioned media (ATCC, cat. CRL-3276), 1.25 mM N-Acetyl-L-cysteine (Sigma-Aldrich, cat. A9165), 10 mM nicotinamide (Sigma-Aldrich, cat. N0636), 1X B-27 supplement (Thermo Fisher Scientific, cat. 17504044), 1X N-2 supplement (Thermo Fisher Scientific, cat. […]
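Further: spheroids exposed to drugs for one week before measurement.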
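Wherever viability, T/C is given: percent viability relative to DMSO vehicle control taken as 100%.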

CC1COCCN1c1cc(-c2ccnn2C)c2ccnc(-c3ccn[nH]3)c2n1 (configuration not stated) + COC1C(OC(N)=O)C(O)C(Oc2ccc3c(O)c(NC(=O)c4ccc(O)c(CC=C(C)C)c4)c(=O)oc3c2C)OC1(C)C
232 nM: IC50 (second compound 0.1 µM)
236 nM: IC50 (second compound 0.316 µM) | IC50 (second compound 3.16 µM)
216 nM: IC50 (second compound 0.0316 µM)
inactive: viability, T/C (second compound 0.0316 µM, first compound 0.0316 µM) 104% | viability, T/C (second compound 0.0316 µM, first compound 0.1 µM) 71.6% | viability, T/C (second compound 0.0316 µM, first compound 0.316 µM) 39% | viability, T/C (second compound 0.0316 µM, first compound 1 µM) 28.6% | viability, T/C (second compound 0.0316 µM, first compound 3.16 µM) 36.5% | viability, T/C (second compound 0.0316 µM, first compound 10 µM) 19.8% | viability, T/C (second compound 0.1 µM, first compound 0.0316 µM) 106% | viability, T/C (second compound 0.1 µM, first compound 0.1 µM) 69.5% | viability, T/C (second compound 0.1 µM, first compound 0.316 µM) 43% | viability, T/C (second compound 0.1 µM, first compound 1 µM) 27% | viability, T/C (second compound 0.1 µM, first compound 3.16 µM) 36.9% | viability, T/C (second compound 0.1 µM, first compound 10 µM) 18.8% | viability, T/C (second compound 0.316 µM, first compound 0.0316 µM) 88.8% | viability, T/C (second compound 0.316 µM, first compound 0.1 µM) 63.6% | viability, T/C (second compound 0.316 µM, first compound 0.316 µM) 46.7% | viability, T/C (second compound 0.316 µM, first compound 1 µM) 28.9% | viability, T/C (second compound 0.316 µM, first compound 3.16 µM) 31.3% | viability, T/C (second compound 0.316 µM, first compound 10 µM) 18.9% | viability, T/C (second compound 1 µM, first compound 0.0316 µM) 92.4% | viability, T/C (second compound 1 µM, first compound 0.1 µM) 72.2% | viability, T/C (second compound 1 µM, first compound 0.316 µM) 43.2% | viability, T/C (second compound 1 µM, first compound 1 µM) 26.9% | viability, T/C (second compound 1 µM, first compound 3.16 µM) 38.4% | viability, T/C (second compound 1 µM, first compound 10 µM) 16.6% | viability, T/C (second compound 3.16 µM, first compound 0.0316 µM) 94.6% | viability, T/C (second compound 3.16 µM, first compound 0.1 µM) 75% | viability, T/C (second compound 3.16 µM, first compound 0.316 µM) 42% | viability, T/C (second compound 3.16 µM, first compound 1 µM) 26.5% | viability, T/C (second compound 3.16 µM, first compound 3.16 µM) 35.9% | viability, T/C (second compound 3.16 µM, first compound 10 µM) 22.7% | viability, T/C (second compound 10 µM, first compound 0.0316 µM) 102% | viability, T/C (second compound 10 µM, first compound 0.1 µM) 82.1% | viability, T/C (second compound 10 µM, first compound 0.316 µM) 47.9% | viability, T/C (second compound 10 µM, first compound 1 µM) 30.6% | viability, T/C (second compound 10 µM, first compound 3.16 µM) 41.7% | viability, T/C (second compound 10 µM, first compound 10 µM) 20%
295 nM: IC50 (second compound 10 µM)
242 nM: IC50 (second compound 1 µM)
